# Measurements taken from patent publication US20060281897A1, “Potentialization of the activation of high molecular weight prodrugs” (priority 2003, published 2006).
# Square brackets hold non-standard residues; d marks the D form.
# What was measured:
# MCF-7/6 cells = experiment: Cytotoxicity test (WST-1 cell viability); format: cell-based, human; conditions: read-out: IC50 (50% inhibiting concentration), 48 hours incubation + 24 hours drug-free post-incubation
# Description: The cytotoxicity tests of doxorubicin and derivatives were carried out with MCF-7/6 cells and LNCaP cells.
# The cells were collected by trypsinization, counted, and then inoculated in 96-well plates in 200 μl of serum-containing medium.
# The cells were incubated for 24 hours at 37° C. before the addition of the products to be tested:
# diluted to various concentrations in the serum-containing culture medium. After an incubation of 48 hours in the presence of various compounds, the cells were finally post-incubated at 37° C. for 24 hours in the presence of drug-free serum-containing medium. After this incubation period, a cell viability test was carried out (WST-1, Roche Molecular Biochemical, Mannheim, Germany).
# They were then post-incubated for 24 hours in drug-free serum containing medium. The cytotoxicity of the products was estimated by a cell viability test (WST-1, Roche Molecular Diagnostic, Mannheim, Germany).
# [1] = 37° C.
# Description: The samples were incubated at 37° C. An extraction (for extraction method with acetonitrile, see Item 7.3 below) of each product was carried out in triplicate at time 0 and after 1, 2, 4 and 6 hours of incubation.
# 10 μl of internal standard (prolyl-daunorubicin) and […] 150 μl of acetonitrile were added into tubes containing 50 μl of the sample to be extracted. The tubes were stirred and centrifuged for 10 minutes to 13000 g. The supernatant was diluted 4 times in a formate buffer, pH 4, centrifuged, then analyzed by HPLC (see Item 7.3 below).
# At different time points, the concentrations of the conjugates and possible metabolites formed were evaluated by HPLC. FIG. 7 illustrates the variations of the concentration of products based on the incubation time.
# [2] = system: HCT-116 human colon carcinoma xenograft; experiment: Chemotherapy study in HCT-116 human colon carcinoma xenograft model; format: in vivo, mice
# Excerpt: The anti-tumor efficacy of PEG2000-(DSer)4-ALAL-Dox was compared to that of succinyl-βALAL-Dox in an HCT-116 human colon carcinoma xenograft model that was implanted subcutaneously in Swiss nude/nude mice. The animals received 5 i.v. bolus injections (for 5 consecutive days) of succinyl-βALAL-Dox at 30 μmol/kg or PEG2000-(DSer)4-ALAL-Dox at 53 and 110 μmol/kg (6 mice/group). […] The results of FIG. 8 show the variations of the body weight of the animals. […] The anti-tumor efficacy is shown by the T/C curve that comprises two phases (FIG. 9). […] In the second phase, the activity of the PEGylated derivative (110 μmol/kg) decreased relative to that of succinyl-PALAL-Dox. […] The MTD of the PEGylated derivative was not reached in this study.
# The anti-tumor efficacy of PEG2000-(DSer)4-ALAL-Dox was compared to that of PEG2000-ALAL-Dox in an HCT-116 human colon carcinoma xenograft model implanted subcutaneously in Swiss nude/nude mice. The animals received 5 i.v. bolus injections (for 5 consecutive days) of the compounds at doses of 200, 300, and 400 μmol/kg (5 mice/group). Contrary to PEG2000-ALAL-Dox, PEG2000-(DSer)4-ALAL-Dox was toxic at 300 and 400 μmol/kg and induced a weight loss and the death of the animals (FIG. 10).
# [3] = system: LS-174T human tumor xenografts; experiment: Efficacy study in LS-174T human colon carcinoma xenograft model; conditions: for T/C min / specific growth delay (SGD): LS-174T, Suc-beta-ALAL-Dox 50 μmol/kg, PEG2000-(DSer)4-ALAL-Dox 1×50+3×35 μmol/kg, i.v. days 0, 7, 14, 21; for body weight loss: as of the second week of weekly i.v. treatment
# Description: The experimental chemotherapy studies were carried out on athymic mice that carried LS-174T or HCT 116 (colon carcinomas) tumors of human origin previously grafted subcutaneously.
# The mice were selected and distributed into the different groups of the study so as to have equal distributions of tumor volumes. The different treatments were randomly assigned to the groups so formed.
# Treatments were administered intravenously in the caudal vein. During these injections, the animals received a constant volume of 10 μl/g of product (Workman et al., 1998). After the injection, the clinical signs were duly followed (each hour during the first day, and daily until the end of the study), as well as the weight that was measured at the same time as the tumor volume (mm^3). The growth of the tumor was monitored 2× per week by measuring, with the aid of a caliper, two perpendicular diameters (or “diagonals”) of the tumor (the largest and the smallest “diagonal”).
# To determine the variations of the tumor volume of the different groups, the median of the relative tumor volumes (RTV for “relative tumor volume”) that express in percent the variations of the medians of the tumor volumes relative to day 0 was calculated. To estimate the effect of the various treatments, the inhibition of the growth was determined by calculating the ratio between the median of the RTV of the treated groups (T) and that of control group (C) that is expressed by percentage (T/C(%)).
# The lowest value of the T/C ratio was used as a parameter to estimate the maximum efficacy of the products that were evaluated.
# The Specific Growth Delay (SGD) was also calculated as (DTtreated−DTcontrol)/(DTcontrol).
# For these reasons, growth delays (T-C) and specific growth delays (SGD) were calculated from linear regressions of different phases that characterize the growth of the tumors.
# The products were injected intravenously (10 μl/g, 6 mice per group).
# The administered doses were reduced starting from day 7.
# [4] = system: LS-174T human colon cancer xenografts; experiment: In vivo tumor reactivation of PEGylated prodrug derivatives (Dox and Leu-Dox accumulated in tumor); conditions: i.v. bolus 69 μmol/kg, LS-174T tumor
# [5] = 1×50+3×35 μmol/kg vs doxorubicin 6.69 μmol/kg
compound,measurement,setting,value
PEG2000-(DSer)4-beta-Ala-Leu-Ala-Leu-doxorubicin [PEG2000-(DSer)4-beta-ALAL-Dox],IC50,MCF-7/6 cells,251 µM
PEG2000-(DSer)4-Ala-Leu-Ala-Leu-doxorubicin (PEG2000-[dS][dS][dS][dS]ALAL-doxorubicin) [PEG2000-(DSer)4-ALAL-Dox],hydrolysis: Dox formed,"[1]; at 6 hours, whole human blood",5%
same,hydrolysis: L-Dox (Leu-Dox) formed,"[1]; at 6 hours, whole human blood",5%
same,anti-tumor effect,[2]; 53 μmol/kg ×5 i.v.,induced a tumor regression for the week of treatment
same,toxicity,"[2]; 53 and 110 μmol/kg, 5 i.v. bolus injections",no toxicity
same,toxicity (weight loss and death of the animals),"[2]; 300 and 400 μmol/kg, 5 i.v. bolus injections on 5 consecutive days",toxic
same,anti-tumor efficacy,[2]; equimolar non-toxic dose 200 μmol/kg ×5 i.v.,better anti-tumor efficacy than that of PEG2000-ALAL-Dox
same,maximum tolerated dose (MTD),[2]; up to 110 μmol/kg ×5 i.v.,not reached
same,activity during the first growth phase,[3]; [5],comparable to that of doxorubicin
same,activity during the second growth phase,[3]; [5],more active than doxorubicin and as active as Suc-beta-ALAL-Dox
same,T/C min,[3],38%
same,specific growth delay (SGD),[3],"1,58"
same,body weight loss,[3],no significant weight loss
same,deaths,"[3]; initial i.v. bolus at 50 μmol/kg and 45 μmol/kg, 6 mice per group",One death
"COc1cccc2c1C(=O)c1c(O)c3c(c(O)c1C2=O)C[C@@](O)(C(=O)CO)C[C@@H]3O[C@H]1C[C@H](N)[C@H](O)[C@H](C)O1 [doxorubicin, reference compound]",body weight loss,[3],no significant weight loss
PEG2000-beta-Ala-Leu-Ala-Leu-doxorubicin [PEG2000-beta-ALAL-Dox],IC50,MCF-7/6 cells,> 500 µM
"COc1cccc2c1C(=O)c1c(O)c3c(c(O)c1C2=O)CC(O)(C(=O)CO)CC3OC1CC(NC(=O)C(CC(C)C)NC(=O)C(C)NC(=O)C(CC(C)C)NC(=O)CCNC(=O)CCC(=O)O)C(O)C(C)O1 (stereo not drawn) [Suc-beta-ALAL-Dox, succinyl-beta-Ala-Leu-Ala-Leu-doxorubicin, reference compound]",body weight loss,"[2]; 30 μmol/kg ×5 i.v., end of the study, day 49",about 20%
same,T/C min,[3],26.6%
same,specific growth delay (SGD),[3],3.02
same,body weight loss,[3],slight weight loss
same,maximum weight loss,"[3]; day 32, 45 and 50 μmol/kg groups",10%
same,DOX concentration in tumor,[4]; 2 hours after injection,1.93 nmol/mg
same,Leu-DOX concentration in tumor,[4]; 2 hours after injection,4.64 nmol/mg
same,DOX concentration in tumor,[4]; 72 hours after injection,5.41 nmol/mg
same,Leu-DOX concentration in tumor,[4]; 72 hours after injection,0.05 nmol/mg
"COc1cccc2c1C(=O)c1c(O)c3c(c(O)c1C2=O)CC(O)(C(=O)CO)CC3OC1CC(NC(=O)C(CC(C)C)NC(=O)C(C)NC(=O)C(CC(C)C)NC(=O)C(C)N)C(O)C(C)O1 (stereo not drawn) [ALAL-Dox, Ala-Leu-Ala-Leu-doxorubicin, reference compound]",stability in blood,[1]; 20 μM in citrated human blood,not stable in blood
same,starting product degraded in Leu-Dox and Dox,"[1]; after 1 hour, whole human blood",80%
